Measured values from patent publication US5670538A, “Use of prodelphinidins for obtaining medicaments intended for the treatment of arthrosis” (Laboratoires Dolisos, priority 1992, dated 1997).

Legend:
[1] = Antilipoperoxidizing activity (gamma irradiation, linoleic acid substrate, pentane); assay type: biochemical; conditions: for % inhibition of pentane release from linoleic acid (lipid peroxidation): Substrate: Linoleic acid, relative to the controls; for Production of free radicals from linoleic acid, effect in words: Table 23
Description: 9. Antilipoperoxidizing activity
Similar to the preceding anti-radical method but where the KMB is replaced by linoleic acid (C18: 2), the gamma radiation releases pentane which is analyzed. The height of the pentane peak is proportional to the quantity free of radicals formed in the medium.

[2] = system: human articular chondrocytes; experiment: Radioimmunoassay of prostaglandins E2 (PGE2) produced in tridimensional culture of human chondrocytes; assay type: cell-based; conditions: for Amounts of PGE2 in the culture media taken on the 4th and 8th day: 1% Ultroser G, incubation of the 4th to 8th day; for PGE2 in the culture medium: foetal calf serum
Description: The model used for testing the proanthocyanidols, namely the tridimensional culture of human chondrocytes allows chondrorepair to be quantified by the production of matrix substances: type II collagen, proteoglycans, and chondroresorption by the reduction in the levels of prostaglandin E2 and of OH° and O°2 type free radicals produced.
(§1) 1. Tridimensional culture of human chondrocytes
(§2) The technique used has been described in detail (Bassleer et al., 1986).
(§3) Briefly, human articular chondrocytes are cultivated in DMEM (Dulbecco's Modification of Eagle's Medium--ICN--Gand, Belgium) with either Ultroser G 1% (GIBCO, Gand, Belgium) or 10% of foetal calf serum (ICN--Gand--Belgium), and 50 μg of ascorbic acid/ml added to it. The cartilage originates from the apparently normal zone of heads of human femur suffering from arthrosis, immediately after an operation carried out to insert a total hip prosthesis; it can also originate from the head of a healthy femur, but which has undergone a traumatism and has had to be replaced. This cartilage is then digested by clostridial collagenase 1 mg/ml (Boehringer-Mannheim, Germany) in a buffer (NaCl 120 mM, CaCl2 1 mM, KCl 5 mM, KH2 PO4 1 mM, NaHCO3 25 mM, glucose 2 mM and Hepes 30 mM, pH 7.4) for 24 hours. After 6 successive washings and centrifugations, the chondrocytes, isolated from their matrix, are cultured in flasks (10^6 cells/2 ml of culture medium) placed on a gyrator (10 rpm). The cultures are kept at 37° C. in an atmosphere of air 95%-CO2 5% (Bassleer et al., 1986). Cultivated under these conditions, after 4 to 5 days the chondrocytes form a tridimensional cluster in each flask. These clusters, which at first have a flocculent appearance, then tend to condense during the culture. After two weeks, their diameter is, in general, from 1 to 2 mm.
(§4) The fresh weight of the clusters increases with the duration of the culture, above all during the few first days.
4. Radioimmunoassay of prostaglandins E2 (PGE2)
The radioimmunoassay of PGE2s is carried out according to the method described by Serteyn et al., 1988. The PGE2 is obtained from Sigma (Aldrich-Chemie, Steinheim, Germany) and the ^3 H-PGE2 from NEN (Du Pont de Nemours, Brussels, Belgium). 0.1 ml of incubation buffer (10 mM Tris-HCl […], 0.5% sodium azide (W/V), 1% gelatine (W/V), pH 7.4), 0.1 ml of ^3 H-PGE2 (diluted so as to obtain 10,000 cpm/0.1 ml) and 0.1 ml of antiserum (1/4000) are added successively to 0.1 ml of the sample to be assayed or the reference antigen (0-500 pg). After incubation for 48 hours at 4° C., the free antigen is separated from the antigens bound to the antibodies by a precipitation with carbon-DEXTRAN T70 (0.5 ml per tube). The carbon-Dextran solution contains 5 g/l of neutral carbon, 500 mg of Dextran 70/l. After centrifugation (20 minutes, 3000 rpm, 4° C.), the radioactivity present in the supernatant is measured with a beta counter (Beckman) using liquid scintillation. The sensitivity of the assay is 20 pg/ml.
The accuracy of the method is 5%. The coefficients of the intra- and inter assay variation are 6% and 10% respectively. There is no cross reaction between this anti PGE2 antiserum and other prostanoids (Thromboxane B2, G-keto-PGF1-alpha, PGF2, PGA2), nor with the fatty acids such as arachidonic acid, oleic acid or also linoleic acid.
The results are expressed in quantities of PG, coll. II or PGE2 measured in the culture medium (CM) per μg of DNA. The cumulative measurements are obtained by adding the quantities assayed in the CMs to each renewal of the CM, for successive periods: 0 to 4, 4 to 8, 8 to 12 days of culture. The total production of PG is calculated by adding the cumulative quantities measured in the CMs to those measured in the corresponding clusters. The mean and the standard deviation (m±s.d) are calculated. Comparison of the mean values is carried out using the Mann-Whitney U statistical test. […]

ferricytochrome C = experiment: Control experiments: direct reduction of ferricytochrome C by the product itself; assay type: biochemical; conditions: effect not quantifiable
Description: This effect not being quantifiable, no conclusion can consequently be drawn on a possible inhibiting effect of these products on the production of the superoxide anion by the activated PMNs.

[3] = system: human articular chondrocytes; experiment: Synthesis of DNA by incorporation of 3H-thymidine in the chondrocytes, index of cell proliferation; assay type: cell-based; conditions: 1, 10 and 100 pg/ml (so in the source); relative to control values
Description: as §1, §2, §3, §4
5. Analysis of the synthesis of DNA by measurement of the incorporation of ^3 H-thymidine
After different culture durations, the chondrocytes are cultivated in nutritive medium with the addition of 2 uCi/ml (5 Ci/mmole) of methyl ^3 H-thymidine (^3 H-TDN) (Amersham, Brussels, Belgium) for 24 hours. […]
The radioactivity incorporated in the cluster is then measured using a beta scintillation counter.

Structure (SMILES)	% inhibition of pentane release from linoleic acid (lipid peroxidation) ([1]; 10^-3 M)	% inhibition of pentane release from linoleic acid (lipid peroxidation) ([1]; 10^-4 M)	% inhibition of pentane release from linoleic acid (lipid peroxidation) ([1]; 10^-5 M)	Production of free radicals from linoleic acid, effect in words [1]	Amounts of PGE2 in the culture media taken on the 4th and 8th day ([2]; 1 μg/ml)	Amounts of PGE2 in the culture media taken on the 4th and 8th day ([2]; 10 μg/ml)	Amounts of PGE2 in the culture media taken on the 4th and 8th day ([2]; 100 μg/ml)	PGE2 in the culture medium ([2]; 0-4 days, 10 μg/ml)	PGE2 in the culture medium ([2]; 0-4 days, 100 μg/ml)	PGE2 in the culture medium ([2]; 4-8 days, 10 μg/ml)	PGE2 in the culture medium ([2]; 4-8 days, 100 μg/ml)	Direct reduction of ferricytochrome C (ferricytochrome C)	Incorporation of 3H thymidine in the chondrocytes [3]
Oc1cc(O)c2c(c1)O[C@H](c1cc(O)c(O)c(O)c1)[C@@H](O)[C@@H]2c1c(O)cc(O)c2c1O[C@H](c1cc(O)c(O)c(O)c1)[C@H](O)C2 [Substance Ia, GC-(4 alpha→8) EGC]	94%	42%	0%	significantly inhibits	91.5 ± 9 pg/μg of DNA	44 ± 0.6 pg/μg of DNA	25 ± 13 pg/μg of DNA	312 ± 15 pg/μg DNA/96 H	143 ± 25 pg/μg DNA/96 H	27 ± 2.5 pg/μg DNA/96 H	25 ± 3.5 pg/μg DNA/96 H	powerful reducers of ferricytochrome C	None of the substances Ia, lb and Ic modifies the incorporation
Oc1cc(O)c2c(c1)O[C@H](c1cc(O)c(O)c(O)c1)[C@@H](O)[C@@H]2c1c(O)cc(O)c2c1O[C@H](c1cc(O)c(O)c(O)c1)[C@@H](O)C2 [Substance Ib, GC-(4 alpha→8) GC]	93%	45%	0%	significantly inhibits	129 ± 19 pg/μg of DNA	76 ± 14 pg/μg of DNA	48 ± 15 pg/μg of DNA	130 ± 21 pg/μg DNA/96 H	121 ± 16 pg/μg DNA/96 H	30 ± 1.7 pg/μg DNA/96 H	25 ± 1 pg/μg DNA/96 H	powerful reducers of ferricytochrome C	None of the substances Ia, lb and Ic modifies the incorporation
Oc1cc(O)c2c(c1)O[C@H](c1cc(O)c(O)c(O)c1)[C@@H](O)[C@@H]2c1c(O)cc(O)c2c1O[C@H](c1cc(O)c(O)c(O)c1)[C@@H](O)[C@@H]2c1c(O)cc(O)c2c1O[C@H](c1cc(O)c(O)c(O)c1)[C@@H](O)C2 [Substance Ic, GC-(4 alpha→8) GC-(4 a→8)-GC]	91%	40%	0%	significantly inhibits	101 ± 7 pg/μg of DNA	81 ± 12 pg/μg of DNA	39 ± 10 pg/μg of DNA	160 ± 17 pg/μg DNA/96 H	153 ± 15 pg/μg DNA/96 H	35.5 ± 2.1 pg/μg DNA/96 H	29 ± 3.5 pg/μg DNA/96 H	powerful reducers of ferricytochrome C	None of the substances Ia, lb and Ic modifies the incorporation
